From patent US20100256395A1, “EFFICIENT METHOD FOR PRODUCING MUGINEIC ACIDS” (SUNTORY HOLDINGS LIMITED, priority 2006, published 2010)

Tested on: mugineic acid-Fe complex transporter HvYS1
Assay: Iron uptake activity: electrophysiological measurement of intracellular uptake of mugineic acid-Fe complex in oocytes expressing the transporter
Type: cell-based, barley
Conditions: substrate-Fe complex final concentration 50 μM; African clawed frog oocytes expressing HvYS1; natural mugineic acid set to 100%; FIG. 1
Text: Concerning the S isomer (natural form) and R isomer of 2′-OH obtained in Example 12, 2′-deoxy isomer obtained in Example 9, and mugineic acid purified from barley by the method described in “Takagi, S. et al., Journal of Plant Nutrition, 1984, 7th volume, p 469-477”, it was verified that the intracellular uptake of iron complex thereof actually takes place via the mugineic acid-Fe complex transporter. According to the method described in “Murata, Y. et al., Plant Journal (Plant J), 2006, 46th volume, p. 563-572.”, the gene HvYS1 gene which codes the mugineic acid-Fe complex transporter of barley (Plant J. 2006, vol. 46, 563-572) was introduced into the oocytes of the African clawed frog. […] The intracellular uptake of mugineic acid-Fe complex was measured using Oocyte clamp OC-725C (Warner Instrument) by the detection of electrochemical signal. More specifically, the oocyte which expressed the mugineic acid-Fe complex transporter HvYS1 was set to the chamber filled with ND-96 solution, 10 μl of a 5 mM substrate-Fe complex solution (final concentration 50 μM) was sprinkled on the oocyte and the electrical physiological activity was measured. The oocyte was plugged with 2 microelectrodes filled with 3M KCl, and with the mode in which the electric potential of the experimental tank was fixed at 0 V, the current value changing at a fixed electrical potential, […], was measured. […]

Structure (SMILES): O=C(O)[C@@H](NCC[C@H](O)C(=O)O)[C@@H](O)CN1CC[C@H]1C(=O)O [natural mugineic acid, mugineic acid]
- size of the current value (electrical physiological activity), relative value to natural mugineic acid: 100%
